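Cells were grown in 96-well plates and exposed to each compound for 48 hours at five concentrations; endpoints were interpolated linearly between bracketing concentrations, or set to the highest concentration if not reached. GI50 is the concentration that inhibits growth by half. TGI is the concentration that stops growth completely.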
How the values were obtained:
Experiment in all cases: NCI tumour cell line growth inhibition, 48 h
786-0 renal = system: 786-0 renal
A498 renal = system: A498 renal
A549 NSCLC = system: A549 NSCLC
ACHN renal = system: ACHN renal
BT-549 breast = system: BT-549 breast
CCRF-CEM leukemia = system: CCRF-CEM leukemia
COLO 205 colon = system: COLO 205 colon
DU-145 prostate = system: DU-145 prostate
EKVX NSCLC = system: EKVX NSCLC
HCC-2998 colon = system: HCC-2998 colon
HCT-15 colon = system: HCT-15 colon
HL-60(TB) leukemia = system: HL-60(TB) leukemia
HOP-62 NSCLC = system: HOP-62 NSCLC
HOP-92 NSCLC = system: HOP-92 NSCLC
HS 578T breast = system: HS 578T breast
HT29 colon = system: HT29 colon
IGROV1 ovarian = system: IGROV1 ovarian
K-562 leukemia = system: K-562 leukemia
KM12 colon = system: KM12 colon
MALME-3M melanoma = system: MALME-3M melanoma
MCF7 breast = system: MCF7 breast
MDA-MB-231 breast = system: MDA-MB-231 breast
MOLT-4 leukemia = system: MOLT-4 leukemia
NCI-H226 lung = system: NCI-H226 lung
NCI-H23 lung = system: NCI-H23 lung
NCI-H460 lung = system: NCI-H460 lung
NCI-H522 lung = system: NCI-H522 lung
NCI/ADR-RES ovarian = system: NCI/ADR-RES ovarian
OVCAR-3 ovarian = system: OVCAR-3 ovarian
OVCAR-4 ovarian = system: OVCAR-4 ovarian
OVCAR-5 ovarian = system: OVCAR-5 ovarian
OVCAR-8 ovarian = system: OVCAR-8 ovarian
PC-3 prostate = system: PC-3 prostate
RPMI-8226 leukemia = system: RPMI-8226 leukemia
RXF 393 renal = system: RXF 393 renal
SF-268 CNS = system: SF-268 CNS
SF-295 CNS = system: SF-295 CNS
SF-539 CNS = system: SF-539 CNS
SK-MEL-2 melanoma = system: SK-MEL-2 melanoma
SK-MEL-28 melanoma = system: SK-MEL-28 melanoma
SK-MEL-5 melanoma = system: SK-MEL-5 melanoma
SK-OV-3 ovarian = system: SK-OV-3 ovarian
SN12C renal = system: SN12C renal
SNB-19 CNS = system: SNB-19 CNS
SNB-75 CNS = system: SNB-75 CNS
SR leukemia = system: SR leukemia
SW-620 colon = system: SW-620 colon
T-47D breast = system: T-47D breast
TK-10 renal = system: TK-10 renal
U251 CNS = system: U251 CNS
UACC-257 melanoma = system: UACC-257 melanoma
UACC-62 melanoma = system: UACC-62 melanoma
UO-31 renal = system: UO-31 renal

C=CCn1c(SCC(=O)Nc2ccc(C(=O)/C=C/c3cc(OC)c(OC)c(OC)c3)cc2)nnc1-c1ccc(Cl)cc1
GI50 (786-0 renal): 2.16 µM
TGI (786-0 renal): 5.59 µM
GI50 (A498 renal): 2.47 µM
TGI (A498 renal): 10.6 µM
GI50 (A549 NSCLC): 3.61 µM
TGI (A549 NSCLC): 17.3 µM
GI50 (ACHN renal): 3.67 µM
TGI (ACHN renal): 22 µM
GI50 (BT-549 breast): 2.4 µM
TGI (BT-549 breast): 7.79 µM
GI50 (CCRF-CEM leukemia): 2.38 µM
TGI (CCRF-CEM leukemia): 13.3 µM
GI50 (COLO 205 colon): 4.92 µM
TGI (COLO 205 colon): 67.3 µM
GI50 (DU-145 prostate): 3.73 µM
TGI (DU-145 prostate): 40.9 µM
GI50 (EKVX NSCLC): 2.92 µM
TGI (EKVX NSCLC): 15.5 µM
GI50 (HCC-2998 colon): 2.36 µM
TGI (HCC-2998 colon): 5.67 µM
GI50 (HCT-15 colon): 2.68 µM
TGI (HCT-15 colon): 18.8 µM
GI50 (HL-60(TB) leukemia): 2.65 µM
TGI (HL-60(TB) leukemia): 11.3 µM
GI50 (HOP-62 NSCLC): 3.76 µM
TGI (HOP-62 NSCLC): 23.8 µM
GI50 (HOP-92 NSCLC): 2.47 µM
TGI (HOP-92 NSCLC): 11.8 µM
GI50 (HS 578T breast): 5.81 µM
TGI (HS 578T breast): > 100 µM
GI50 (HT29 colon): 2.33 µM
TGI (HT29 colon): 5.69 µM
GI50 (IGROV1 ovarian): 2.76 µM
TGI (IGROV1 ovarian): 13 µM
GI50 (K-562 leukemia): 1.7 µM
TGI (K-562 leukemia): 10.5 µM
GI50 (KM12 colon): 1.97 µM
TGI (KM12 colon): 5.23 µM
GI50 (MALME-3M melanoma): 6.69 µM
TGI (MALME-3M melanoma): 61.5 µM
GI50 (MCF7 breast): 0.38 µM
TGI (MCF7 breast): 11.2 µM
GI50 (MDA-MB-231 breast): 3.08 µM
TGI (MDA-MB-231 breast): > 100 µM
GI50 (MOLT-4 leukemia): 2.66 µM
TGI (MOLT-4 leukemia): 11.4 µM
GI50 (NCI-H226 lung): 1.94 µM
TGI (NCI-H226 lung): 7.42 µM
GI50 (NCI-H23 lung): 2.7 µM
TGI (NCI-H23 lung): 10.5 µM
GI50 (NCI-H460 lung): 3.41 µM
TGI (NCI-H460 lung): 13.5 µM
GI50 (NCI-H522 lung): 3.25 µM
TGI (NCI-H522 lung): 17.4 µM
GI50 (NCI/ADR-RES ovarian): 4.74 µM
TGI (NCI/ADR-RES ovarian): > 100 µM
GI50 (OVCAR-3 ovarian): 2.41 µM
TGI (OVCAR-3 ovarian): 5.93 µM
GI50 (OVCAR-4 ovarian): 3.1 µM
TGI (OVCAR-4 ovarian): 21 µM
GI50 (OVCAR-5 ovarian): 4.75 µM
TGI (OVCAR-5 ovarian): 67.7 µM
GI50 (OVCAR-8 ovarian): 2.79 µM
TGI (OVCAR-8 ovarian): 15 µM
GI50 (PC-3 prostate): 3.2 µM
TGI (PC-3 prostate): 26.4 µM
GI50 (RPMI-8226 leukemia): 0.253 µM
TGI (RPMI-8226 leukemia): 1.03 µM
GI50 (RXF 393 renal): 1.47 µM
TGI (RXF 393 renal): 3.37 µM
GI50 (SF-268 CNS): 4.32 µM
TGI (SF-268 CNS): > 100 µM
GI50 (SF-295 CNS): 4.49 µM
TGI (SF-295 CNS): 48.8 µM
GI50 (SF-539 CNS): 2.96 µM
TGI (SF-539 CNS): 9.83 µM
GI50 (SK-MEL-2 melanoma): 4.52 µM
TGI (SK-MEL-2 melanoma): 36.6 µM
GI50 (SK-MEL-28 melanoma): 4.23 µM
TGI (SK-MEL-28 melanoma): 54.6 µM
GI50 (SK-MEL-5 melanoma): 2.53 µM
TGI (SK-MEL-5 melanoma): 14.3 µM
GI50 (SK-OV-3 ovarian): 6.01 µM
TGI (SK-OV-3 ovarian): 58.3 µM
GI50 (SN12C renal): 3.43 µM
TGI (SN12C renal): > 100 µM
GI50 (SNB-19 CNS): 3.64 µM
TGI (SNB-19 CNS): > 100 µM
GI50 (SNB-75 CNS): 1.79 µM
TGI (SNB-75 CNS): 12.8 µM
GI50 (SR leukemia): 1.52 µM
TGI (SR leukemia): 7.45 µM
GI50 (SW-620 colon): 3 µM
TGI (SW-620 colon): > 100 µM
GI50 (T-47D breast): 2.24 µM
TGI (T-47D breast): 30.6 µM
GI50 (TK-10 renal): 7.87 µM
TGI (TK-10 renal): 61.3 µM
GI50 (U251 CNS): 1.73 µM
TGI (U251 CNS): 4.38 µM
GI50 (UACC-257 melanoma): 6.38 µM
TGI (UACC-257 melanoma): 59.6 µM
GI50 (UACC-62 melanoma): 2.94 µM
TGI (UACC-62 melanoma): 25 µM
GI50 (UO-31 renal): 1.98 µM
TGI (UO-31 renal): 8.34 µM

Source: PubChem BioAssay (NCI)
